Experimental data reported in PubChem BioAssay (NCI).
Several values for one entry are separate records, joined by “and”; a condition that tells them apart may be missing. Equal values may be shown once.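 Five concentrations, 48 hours, 96-well plates. GI50 is the concentration that inhibits growth by half. TGI denotes the concentration required for complete inhibition of growth.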

Assays:
Assay in all cases: NCI tumour cell line growth inhibition, 48 h
SNB-75 CNS = tested on: SNB-75 CNS
T-47D breast = tested on: T-47D breast
HL-60(TB) leukemia = tested on: HL-60(TB) leukemia
RXF 393 renal = tested on: RXF 393 renal
SN12C renal = tested on: SN12C renal
NCI-H23 lung = tested on: NCI-H23 lung
MOLT-4 leukemia = tested on: MOLT-4 leukemia
SK-MEL-2 melanoma = tested on: SK-MEL-2 melanoma
UO-31 renal = tested on: UO-31 renal
EKVX NSCLC = tested on: EKVX NSCLC

SMILES	GI50 (SNB-75 CNS)	TGI (SNB-75 CNS)	GI50 (T-47D breast)	TGI (T-47D breast)	GI50 (HL-60(TB) leukemia)	TGI (HL-60(TB) leukemia)	GI50 (RXF 393 renal)	TGI (RXF 393 renal)	GI50 (SN12C renal)	TGI (SN12C renal)	GI50 (NCI-H23 lung)	TGI (NCI-H23 lung)	GI50 (MOLT-4 leukemia)	TGI (MOLT-4 leukemia)	GI50 (SK-MEL-2 melanoma)	TGI (SK-MEL-2 melanoma)	GI50 (UO-31 renal)	TGI (UO-31 renal)	GI50 (EKVX NSCLC)	TGI (EKVX NSCLC)
COCC1(CO)C(=O)C2CCN1CC2 (stereo not given)	21.9 µM	> 94.2 µM	9.55 µM	34.3 µM	18.9 µM	45.2 µM	15.7 µM	30.2 µM	16.1 µM	31.1 µM	19.7 µM	46 µM	19.4 µM	51.4 µM	20.6 µM	46.5 µM	15.1 µM	30 µM	18.1 µM	43.4 µM
NC(=O)c1cc(S(=O)(=O)Nc2nnc(-c3ccccc3)c(-c3ccccc3)n2)c(SCc2ccccc2)cc1Cl		> 61.5 µM	> 100 µM	> 100 µM	23.1 µM	49.6 µM	75.3 µM	> 100 µM	> 50.8 µM	> 82.6 µM	> 72.3 µM	> 100 µM	38.2 µM	> 70.1 µM	> 43.1 µM	> 60.7 µM	> 100 µM	> 100 µM	> 100 µM	> 100 µM
CC[C@H]1CN2CCc3cc(OC)c(OC)cc3[C@@H]2C[C@@H]1C[C@H]1NCCc2c1[nH]c1ccc(O)cc21	0.032 µM and 0.0223 µM	0.111 µM and 0.0732 µM and 0.0544 µM	0.0233 µM	0.0897 µM and 0.0583 µM	0.0296 µM and 0.025 µM	0.0955 µM and 0.0514 µM and 0.0353 µM	0.0194 µM and 0.0351 µM	0.0629 µM and 0.252 µM and 0.183 µM	0.0228 µM and 0.0349 µM	0.0741 µM and 0.136 µM and 0.19 µM	0.0177 µM and 0.0303 µM	0.0472 µM and 0.112 µM and 0.0706 µM	0.0117 µM and 0.0272 µM		0.0228 µM	0.052 µM and 0.0353 µM	0.251 µM and 1.2 µM	0.772 µM and 4.5 µM and 1.9 µM	0.0409 µM	0.401 µM and 0.125 µM
OCCCNc1nccc(-c2c(-c3ccc(F)cc3)nn3cc(C(F)(F)F)ccc23)n1	> 13.4 µM	> 25 µM	8.42 µM	> 23.4 µM	> 19.6 µM	> 25 µM	5.86 µM	19.1 µM	13.3 µM	> 25 µM	> 25 µM	> 25 µM	14.3 µM	> 25 µM	> 23.1 µM	> 25 µM	7.07 µM	> 25 µM	20.5 µM	> 25 µM
C=C1C(=O)O[C@H]2[C@H]1CC/C(COC(=O)/C=C\C(=O)NCc1ccc(Cn3c(=O)sn(CCCC)c3=O)cc1)=C\CC[C@@]1(C)O[C@@H]21	0.697 µM	2.19 µM	1.27 µM	4.22 µM	0.396 µM	1.77 µM	0.547 µM	1.79 µM	0.865 µM	2.25 µM	1.4 µM	2.89 µM	0.34 µM	1.52 µM	1.67 µM	3.31 µM	0.387 µM	1.61 µM	1.48 µM	2.85 µM
CCOC(=O)c1c(NC(=O)c2cccc(C(F)(F)F)c2)sc2c(CN(C)C)c(O)ccc12	11.1 µM	26.8 µM	3.74 µM	21.4 µM	1.89 µM	4.26 µM	1.81 µM	3.76 µM	7.68 µM	20.4 µM	13.1 µM	32.1 µM	3.77 µM	38.8 µM	2.57 µM	6.92 µM	3.34 µM	14.4 µM	15.2 µM	36.1 µM
Cc1[nH]c(/C=C2\C(=O)Nc3ccccc32)c(C)c1CCC(=O)O		56.1 µM and 59.8 µM		> 100 µM	20.2 µM	45.8 µM	19.2 µM	63.3 µM and 90.5 µM	24.7 µM	> 100 µM	20.3 µM	73.4 µM and > 100 µM	26.5 µM	69.4 µM and 84.4 µM		38.5 µM and 38.8 µM	11.6 µM	43.6 µM and > 100 µM	20.9 µM	89.9 µM and 97.4 µM
CCN1C(=O)N(CC)C2C1NN=c1s/c(=C3\C(=O)N(CC(C)(C)C)c4ccccc43)c(=O)n12 (stereo not given)	2.77 µM	24.2 µM	5.71 µM	53.7 µM	3.78 µM	22.6 µM	1.83 µM	12.8 µM	2.21 µM	11.3 µM	3.39 µM	14.5 µM	3.79 µM	40.3 µM	11.3 µM	33.1 µM	3.65 µM	18.2 µM	5.07 µM	54.2 µM
O=S(=O)(Nc1ccc(F)cc1F)c1ccc(-c2cnc(C3CC3)o2)cc1	0.219 µM	1.25 µM	0.443 µM	52.8 µM	0.397 µM	6.39 µM	0.595 µM	7.05 µM	0.878 µM	39.8 µM	1.75 µM	68.9 µM	0.652 µM	> 70.1 µM	0.737 µM	34.6 µM	1.07 µM	34.2 µM	1.44 µM	> 73 µM
NCCSc1nc(-c2ccccc2)c(-c2ccccc2)o1		61.4 µM		> 100 µM				> 100 µM		> 100 µM		> 100 µM				> 100 µM		> 100 µM		> 100 µM
O=C(Nc1ccc(-n2ccc3c(NC(=O)c4ccccc4)nccc32)cc1)Nc1ccc(Cl)c(Cl)c1	0.489 µM	2.34 µM	2.03 µM	5.33 µM	1.25 µM	4.22 µM	0.624 µM	1.96 µM	2.01 µM	9.08 µM	5.2 µM	28.6 µM	0.908 µM	8.56 µM	1.98 µM	4.87 µM	1.6 µM	4.1 µM	4.83 µM	44 µM
c1ccc2nc3c(nc2c1)sc1ccccc13		62.8 µM		> 100 µM		> 100 µM				> 100 µM		71.1 µM		> 100 µM		> 100 µM		> 100 µM		96.2 µM
Cc1nc2sc3c(c2c(=O)[nH]1)CCCC3		> 100 µM		> 100 µM		> 100 µM		> 100 µM		> 100 µM		> 100 µM		> 100 µM		> 100 µM		68.2 µM		> 100 µM
CC(=O)Oc1ccccc1C(=O)Nc1ncc([N+](=O)[O-])s1	1.6 µM	7.13 µM and > 67.9 µM	2.88 µM	> 26.6 µM and 60.3 µM	1.77 µM	4.24 µM	2.06 µM	13.1 µM and 29.7 µM	1.87 µM	21.2 µM and 90.9 µM	1.8 µM	6.39 µM and > 63 µM	2.64 µM		2.05 µM		2.16 µM		2.66 µM	> 100 µM
C1=C\COCc2cc(ccc2OCCN2CCCC2)Nc2nccc(n2)-c2cccc(c2)COC/1	1.64 µM	4.75 µM	1.37 µM	5.12 µM	1.28 µM	4.79 µM	1.05 µM	2.9 µM	1.19 µM	4.92 µM	2.09 µM	5.79 µM	1.33 µM	4.9 µM	2.49 µM	5.51 µM	0.722 µM	4.01 µM	2.76 µM	7.73 µM
Cc1nc(-[n+]2nc(-c3ccncc3)nn2-c2ccccc2)sc1C		> 100 µM		> 100 µM		> 100 µM		45.9 µM		> 100 µM		> 100 µM		> 100 µM		> 100 µM		50.4 µM		> 100 µM
O=C1c2ccccc2-c2c1c1ccccc1c(=O)n2CCCCl	8.4 µM	36.6 µM	22.5 µM	> 100 µM					12.1 µM	51.8 µM	15.7 µM	50.1 µM	1.61 µM	4.38 µM	47.4 µM	> 100 µM	6.47 µM	69.2 µM	18.1 µM	> 100 µM
O=CN1CCN(CC(O)CN2CCCCC2)CC1 (stereo not given)		> 100 µM		> 100 µM		> 100 µM		> 100 µM		> 100 µM		> 100 µM		> 100 µM		> 100 µM		> 100 µM		> 100 µM
OCc1ccn2c1[C@@H](O)CC2		> 100 µM		> 100 µM		> 100 µM		> 100 µM		> 100 µM		> 100 µM		> 100 µM		> 100 µM				> 100 µM
COc1cc2c3c(n(CCCOC(=O)C(F)(F)F)c(=O)c2cc1OC)-c1cc2c(cc1C3=O)OCO2	0.0726 µM	> 100 µM		> 28.2 µM			0.593 µM	> 67.8 µM	< 0.01 µM	0.0272 µM	< 0.0158 µM	< 0.045 µM			7.3 µM	> 100 µM	< 0.01 µM	> 100 µM	0.612 µM	> 63.8 µM
COc1cc(OC)c(/C=C/c2c3ccccc3cc[n+]2C)c(OC)c1	1.27 µM	8.01 µM	0.541 µM	> 26.2 µM	0.811 µM	7.32 µM	4.99 µM	> 51.3 µM	2.31 µM	18.6 µM	1.29 µM	25.8 µM	3.1 µM	32.8 µM	2.64 µM	6.3 µM	18.5 µM	> 100 µM		
COc1ccc(CCNC(=O)c2ccc(NC3=C(Cl)C(=O)N(Cc4ccccc4)C3=O)cc2)cc1OC	38.4 µM	> 100 µM	5.31 µM	> 100 µM	2.83 µM	4.49 µM	7.83 µM	> 100 µM	23.9 µM	> 100 µM	2.01 µM	4.46 µM	2.28 µM	4.78 µM	16.8 µM	54.1 µM			24.9 µM	> 100 µM
CCN(Cc1ccccc1C)c1ccc(CO)c(Cl)c1	9.62 µM	25 µM	0.244 µM	2.19 µM	11.3 µM	34.4 µM	6.3 µM	23.8 µM	12.5 µM	25.9 µM	12.8 µM	38 µM	15.8 µM	39.2 µM	4.47 µM	18.1 µM	12.9 µM	32.9 µM		
Cn1cc(C2=C(c3cccc(Br)c3)C(=O)NC2=O)c2ccccc21	1.18 µM	> 25 µM	8.11 µM	> 25 µM	10.2 µM	> 25 µM	8.3 µM	> 25 µM	13.2 µM	> 25 µM	12.5 µM	> 25 µM	9.91 µM	> 25 µM	11.6 µM	> 21.6 µM	6.42 µM	> 25 µM		
O=C(Nc1ccc(F)cc1)c1cc(S(=O)(=O)Nc2nc3ccccc3o2)c(SCc2ccccc2)cc1Cl	24.3 µM	56.9 µM	28.3 µM	> 100 µM			12.8 µM	30.2 µM	16.4 µM	31.6 µM	19.5 µM	36.9 µM	19.5 µM	52.4 µM			14.1 µM	29.2 µM	17.1 µM	34 µM
CCOC(=O)/C=C(/C)Sc1cc(O)c2ccccc2c1O	2.55 µM	6.94 µM	2.23 µM	13.1 µM	2.29 µM	5.72 µM	2.28 µM	6.34 µM	2.48 µM	7.29 µM	2.07 µM	5.67 µM	2.33 µM	7.08 µM			1.59 µM	11.1 µM	3.89 µM	21.2 µM
[N-]=[N+]=Nc1cc(=O)n2c3c(cccc13)CCC2		> 100 µM		> 100 µM		> 100 µM		> 100 µM		> 100 µM		> 100 µM		> 100 µM				> 100 µM		> 100 µM
CCn1c(=O)c2c(=O)c3c4c(oc3oc2c2ccccc21)C(=O)c1ccccc1C4=O	> 20.8 µM	> 53.3 µM	0.372 µM	2.87 µM			> 31.7 µM	> 100 µM	> 100 µM	> 100 µM	> 48.9 µM	> 100 µM	0.366 µM	2.12 µM	> 100 µM	> 100 µM	> 100 µM	> 100 µM	1.47 µM	> 100 µM
O=C1NC(=O)C(c2cccc([N+](=O)[O-])c2)=C1Nc1cc(Cl)c(O)c(Cl)c1	10.7 µM	> 25 µM	> 25 µM	> 25 µM	> 25 µM	> 25 µM	> 21.7 µM	> 25 µM	> 25 µM	> 25 µM			> 25 µM	> 25 µM	> 19.8 µM	> 25 µM	> 17.6 µM	> 25 µM	> 25 µM	> 25 µM
